One block for each compound: values may come before it.
Tested on: 931267-113-T-J1-PDC multicell spheroid viability
Experiment: Anticancer human tumor 931267-113-T-J1-PDC patient-derived colon adenocarcinoma cell line growth inhibition [PI3K]
Conditions: for IC50: curve of first compound; for viability, T/C: stronger effect = lower value
Description: Combinatorial screen of targeted agents with the PI3K inhibitors inavolisib, alpelisib, duvelisib, and copanlisib in multi-cell type tumor spheroids
A high-throughput screen of multi-cell type tumor spheroids was designed to identify active combinations of targeted small molecules and PI3K pathway inhibitors. Complex spheroids include a stromal component modeled by human endothelial cells (HUVEC) and fibroblasts modeled by human mesenchymal stem cells (MSCs). The concentration ranges selected for each drug and investigational agent were based upon clinically achievable concentrations if the clinical Cmax of the agent was known.
Compounds. The drugs and investigational agents: inavolisib (NSC800729), alpelisib (NSC765974), duvelisib (NSC772469), copanlisib (NSC816437), ipatasertib (NSC767898), afuresertib (NSC778305), talazoparib (NSC767125), sapanisertib (NSC764658), selumetinib (NSC741078), tovorafenib (DAY101, NSC766906), vemurafenib (NSC761431), ravoxertinib (NSC781343), sotorasib (NSC818433), MRTX1133 (NSC 836407), abemaciclib (NSC 768073), palbociclib (NSC758247), venetoclax (NSC 766270), SY5609 (NSC837396), enzalutamide (NSC755605), and darolutamide (NSC825331), were obtained from the National Cancer Institute (NCI) Developmental Therapeutics Program Chemical Repository. The FDA-approved anticancer drug set is available from the NCI Developmental Therapeutics Program. […] The stock solutions were prepared in dimethyl sulfoxide (DMSO, Sigma-Aldrich, St. Louis, MO, cat. D2650) at 800-fold the tested concentration and stored at -70 degrees C prior to their use. All drugs and investigational agents were tested over a range starting from a high concentration at or near the clinical Cmax and decreasing in half-log increments. If the clinical Cmax for an agent had not been determined, the highest concentration tested was 10 microM.
Cell Culture. All cells were maintained in an incubator at 37 degrees C and 5% CO2 with 95% humidity. The PDC lines were cultured according to standard operating procedures established by the NCI PDMR (https://pdmr.cancer.gov/sops/default.htm). All PDCs were thawed and cultured in Matrigel-coated flasks prepared with a working solution of 1X Ham's F-12 nutrient mix, without supplementation (Invitrogen, Waltham, MA, cat. 11765054), 100 U/mL penicillin-streptomycin (Invitrogen, cat. 15140122), and 2.5% Matrigel (Corning Inc., Corning, NY, cat. 354248) for the first three passages. The 354836-022-R-J1-PDC, 475296-252-R-J1-PDC, and 997726-040-R-J2-PDC lines were cultured in 6A media, which includes advanced DMEM/F-12 (Thermo Fisher Scientific, cat. 12634028), 10 mM HEPES (Thermo Fisher Scientific, cat. 15630080), 1X GlutaMAX supplement (Thermo Fisher Scientific, cat. 35050061), 0.1 mg/mL primocin (InvivoGen, San Diego, CA, cat. ant-pm-2), 10% defined fetal bovine serum, heat inactivated (HyClone Laboratories Inc., Logan, UT, cat. SH30070.03HI), 50% L-WRN conditioned media (ATCC, cat. CRL-3276), 1.25 mM N-Acetyl-L-cysteine (Sigma-Aldrich, cat. A9165), 10 mM nicotinamide (Sigma-Aldrich, cat. N0636), 1X B-27 supplement (Thermo Fisher Scientific, cat. 17504044), 1X N-2 supplement (Thermo Fisher Scientific, cat. 17502048), and 10 microM Y-27632 dihydrochloride (Tocris Bioscience, Bristol, United Kingdom, cat. 1254). The 624824-186-R-J2-PDC line was cultured in 6C/Colon 1B media, which includes all 6A media components plus 50 ng/mL human EGF recombinant protein (Thermo Fisher Scientific, cat. PHG0311). […]

[1] = second compound 0.00316 µM, first compound 0.0316 µM
[2] = second compound 0.00316 µM, first compound 0.1 µM
[3] = second compound 0.00316 µM, first compound 0.316 µM
[4] = second compound 0.00316 µM, first compound 1 µM
[5] = second compound 0.00316 µM, first compound 3.16 µM
[6] = second compound 0.00316 µM, first compound 10 µM
[7] = second compound 0.01 µM, first compound 0.0316 µM
[8] = second compound 0.01 µM, first compound 0.1 µM
[9] = second compound 0.01 µM, first compound 0.316 µM
[10] = second compound 0.01 µM, first compound 1 µM
[11] = second compound 0.01 µM, first compound 3.16 µM
[12] = second compound 0.01 µM, first compound 10 µM
[13] = second compound 0.0316 µM, first compound 0.0316 µM
[14] = second compound 0.0316 µM, first compound 0.1 µM
[15] = second compound 0.0316 µM, first compound 0.316 µM
[16] = second compound 0.0316 µM, first compound 1 µM
[17] = second compound 0.0316 µM, first compound 3.16 µM
[18] = second compound 0.0316 µM, first compound 10 µM
[19] = second compound 0.1 µM, first compound 0.0316 µM
[20] = second compound 0.1 µM, first compound 0.1 µM
[21] = second compound 0.1 µM, first compound 0.316 µM
[22] = second compound 0.1 µM, first compound 1 µM
[23] = second compound 0.1 µM, first compound 3.16 µM
[24] = second compound 0.1 µM, first compound 10 µM
[25] = second compound 0.316 µM, first compound 0.0316 µM
[26] = second compound 0.316 µM, first compound 0.1 µM
[27] = second compound 0.316 µM, first compound 0.316 µM
[28] = second compound 0.316 µM, first compound 1 µM
[29] = second compound 0.316 µM, first compound 3.16 µM
[30] = second compound 0.316 µM, first compound 10 µM
[31] = second compound 1 µM, first compound 0.0316 µM
[32] = second compound 1 µM, first compound 0.1 µM
[33] = second compound 1 µM, first compound 0.316 µM
[34] = second compound 1 µM, first compound 1 µM
[35] = second compound 1 µM, first compound 3.16 µM
[36] = second compound 1 µM, first compound 10 µM
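Further: viability read 7 days after compound addition.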

IC50 (second compound 0.00316 µM): 531 nM | IC50 (second compound 0.01 µM): 419 nM | IC50 (second compound 0.0316 µM): 364 nM | IC50 (second compound 0.1 µM): 219 nM | IC50 (second compound 0.316 µM): 179 nM | IC50 (second compound 1 µM): 55.8 nM
Compound: C#Cc1c(F)ccc2cc(O)cc(-c3ncc4c(N5CC6CCC(C5)N6)nc(OCC56CCCN5CC(F)C6)nc4c3F)c12 (centres undefined) + CC(Nc1ccc2c(c1)OCCn1cc(N3C(=O)OCC3C(F)F)nc1-2)C(N)=O
viability, T/C [1]: 76.7% | viability, T/C [2]: 76.6% | viability, T/C [3]: 49% | viability, T/C [4]: 45.8% | viability, T/C [5]: 33.9% | viability, T/C [6]: 26% | viability, T/C [7]: 79% | viability, T/C [8]: 65.4% | viability, T/C [9]: 52.9% | viability, T/C [10]: 41.8% | viability, T/C [11]: 31.3% | viability, T/C [12]: 24.8% | viability, T/C [13]: 83.5% | viability, T/C [14]: 65.3% | viability, T/C [15]: 53.4% | viability, T/C [16]: 36.6% | viability, T/C [17]: 29.1% | viability, T/C [18]: 18.8% | viability, T/C [19]: 82.4% | viability, T/C [20]: 63.3% | viability, T/C [21]: 43.7% | viability, T/C [22]: 29.4% | viability, T/C [23]: 22.9% | viability, T/C [24]: 17% | viability, T/C [25]: 72.3% | viability, T/C [26]: 56.4% | viability, T/C [27]: 45% | viability, T/C [28]: 25.1% | viability, T/C [29]: 19.8% | viability, T/C [30]: 13.3% | viability, T/C [31]: 57.5% | viability, T/C [32]: 43.9% | viability, T/C [33]: 26% | viability, T/C [34]: 23.6% | viability, T/C [35]: 14.7% | viability, T/C [36]: 10.8%

IC50 (second compound 0.00316 µM): > 10000 nM | IC50 (second compound 0.01 µM): > 10000 nM | IC50 (second compound 0.0316 µM): > 10000 nM | IC50 (second compound 0.1 µM): > 10000 nM | IC50 (second compound 0.316 µM): > 10000 nM | IC50 (second compound 1 µM): > 10000 nM
Compound: C=CC(=O)N1CCN(c2nc(=O)n(-c3c(C)ccnc3C(C)C)c3nc(-c4c(O)cccc4F)c(F)cc23)C(C)C1 (centres undefined) + CC(Nc1ccc2c(c1)OCCn1cc(N3C(=O)OCC3C(F)F)nc1-2)C(N)=O
viability, T/C [1]: 108% | viability, T/C [2]: 106% | viability, T/C [3]: 100% | viability, T/C [4]: 114% | viability, T/C [5]: 115% | viability, T/C [6]: 107% | viability, T/C [7]: 94.8% | viability, T/C [8]: 98% | viability, T/C [9]: 117% | viability, T/C [10]: 118% | viability, T/C [11]: 110% | viability, T/C [12]: 106% | viability, T/C [13]: 122% | viability, T/C [14]: 105% | viability, T/C [15]: 90.4% | viability, T/C [16]: 109% | viability, T/C [17]: 114% | viability, T/C [18]: 106% | viability, T/C [19]: 102% | viability, T/C [20]: 100% | viability, T/C [21]: 86.7% | viability, T/C [22]: 102% | viability, T/C [23]: 98% | viability, T/C [24]: 97% | viability, T/C [25]: 91.9% | viability, T/C [26]: 87.1% | viability, T/C [27]: 99.8% | viability, T/C [28]: 88.8% | viability, T/C [29]: 90.4% | viability, T/C [30]: 72.2% | viability, T/C [31]: 92.9% | viability, T/C [32]: 74% | viability, T/C [33]: 79% | viability, T/C [34]: 80.7% | viability, T/C [35]: 83.8% | viability, T/C [36]: 71.4%
